Results on ten molecules are retold here after ChEMBL document CHEMBL4819111, “Steroidal alkaloids isolated from Veratrum grandiflorum Loes. as novel Smoothened inhibitors with anti-proliferation effects on DAOY medulloblastoma cells” (Bioorg Med Chem, 2021).

SMILES strings stand for the structures.

In experiment [1] the target is Protein smoothened (Homo sapiens) (UniProt Q99835). In words: Binding affinity to recombinant human Flag-6 x His-tagged Smo expressed in human HEK293T cells assessed as reduction in BODIPY-Cyclopamine binding by measuring fluorescence intensity incubated for 2 to 4 hrs by fluorescence microscopic based competitive binding analysis. It counts as cell-based. The conditions noted are these: dose 3-30 µM, time 2-4 hrs.
Sequence of Protein smoothened (Homo sapiens) (Q99835 whole entry): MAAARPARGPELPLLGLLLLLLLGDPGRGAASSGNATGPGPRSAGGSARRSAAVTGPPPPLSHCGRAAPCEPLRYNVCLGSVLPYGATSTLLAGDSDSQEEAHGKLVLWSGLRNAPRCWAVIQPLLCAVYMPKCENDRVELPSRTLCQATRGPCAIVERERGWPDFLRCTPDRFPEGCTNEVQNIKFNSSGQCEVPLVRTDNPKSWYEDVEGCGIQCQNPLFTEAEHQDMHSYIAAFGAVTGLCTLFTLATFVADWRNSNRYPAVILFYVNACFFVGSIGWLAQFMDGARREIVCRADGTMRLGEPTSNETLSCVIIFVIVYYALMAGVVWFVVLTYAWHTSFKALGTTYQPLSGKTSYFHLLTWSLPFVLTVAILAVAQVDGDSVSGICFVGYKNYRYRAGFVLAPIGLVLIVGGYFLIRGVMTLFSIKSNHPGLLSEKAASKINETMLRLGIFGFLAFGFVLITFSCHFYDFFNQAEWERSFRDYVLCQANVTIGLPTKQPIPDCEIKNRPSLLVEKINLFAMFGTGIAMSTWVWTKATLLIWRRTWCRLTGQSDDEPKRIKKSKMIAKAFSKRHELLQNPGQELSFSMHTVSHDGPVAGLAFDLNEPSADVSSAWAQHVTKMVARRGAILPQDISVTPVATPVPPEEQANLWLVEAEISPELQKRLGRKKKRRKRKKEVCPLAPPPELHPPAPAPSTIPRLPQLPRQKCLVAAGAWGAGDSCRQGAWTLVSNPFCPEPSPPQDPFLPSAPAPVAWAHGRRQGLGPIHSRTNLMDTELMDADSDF

For experiment [2] the target is unchanged. Kind of experiment: Binding affinity to recombinant human Flag-6 x His-tagged Smo expressed in human HEK293T cells assessed as reduction in BODIPY-Cyclopamine binding by measuring fluorescence intensity at 30 uM incubated for 2 to 4 hrs by fluorescence microscopic competitive binding analysis relative to control. It counts as cell-based. Further details: scale not given: the % may be the effect or the level left. The conditions noted are these: time 2-4 hrs.

Experiment [3] relates to Daoy. In words: Antiproliferative activity against human DAOY cells assessed as cell viability at 10 to 30 uM incubated for 24 hrs by MTT assay relative to control. It counts as functional. The conditions noted are these: dose 10-30 µM.
Experiment [4] in a line: Inhibition of hedgehog pathway in mouse Shh Light II cells transfected with Renilla luciferase and firefly luciferase incubated for 48 hrs by dual luciferase reporter gene assay. It counts as cell-based.
In experiment [5] the test system is Daoy. Kind of experiment: Antiproliferative activity against human DAOY cells assessed as cell viability at 0.2 uM incubated for 24 hrs by MTT assay relative to control. It counts as functional. The conditions noted are these: read-out: Activity.
Experiment [6] concerns the target Protein smoothened (Homo sapiens) (UniProt Q99835). In words: Binding affinity to recombinant human Flag-6 x His-tagged Smo expressed in human HEK293T cells assessed as reduction in BODIPY-Cyclopamine binding by measuring fluorescence intensity at 3 uM incubated for 2 to 4 hrs by fluorescence microscopic competitive binding analysis relative to control. It counts as cell-based. Further details: scale not given: the % may be the effect or the level left. The conditions noted are these: time 2-4 hrs.

In experiment [7] the test system is Daoy. Kind of experiment: Antiproliferative activity against human DAOY cells assessed as reduction in cell viability incubated for 24 hrs by MTT assay. The experiment is classed as functional, cell-based.
Experiment [8] has as its system Daoy. In words: Antiproliferative activity against human DAOY cells assessed as cell viability at 30 uM incubated for 24 hrs by MTT assay relative to control. The conditions noted are these: read-out: Activity. The experiment is classed as functional.

Turning to `C[C@H]1CCC([C@H](C)[C@H]2CC[C@H]3[C@@H]4CC=C5C[C@@H](O)CC[C@]5(C)[C@H]4CC[C@]23C)=NC1`, the values for the Activity entry in experiment [1], in experiment [2] and in experiment [3] were “Dose-Dependent Effect”, 53.2% and 79.45%, respectively. In experiment [4], this molecule gave an IC50 of 3.26 µM.
Turning to `CS(=O)(=O)c1ccc(C(=O)Nc2ccc(Cl)c(-c3ccccn3)c2)c(Cl)c1` [VISMODEGIB], in experiment [5], the viability at 0.2 µM came out at 91.5%. For the same molecule, the midpoint of inhibition in experiment [4], the IC50, lay at 0.07 µM.
As to `C[C@H]1CC[C@@H]([C@@H](C)[C@]2(C)CCC3C2=CCC2C3CC=C3C[C@@H](O[C@@H]4O[C@H](CO)[C@@H](O)[C@H](O)[C@H]4O[C@@H]4O[C@@H](C)[C@H](O)[C@@H](O)[C@H]4O)CC[C@@]32C)NC1` (stereo not given in full), the Activity in experiment [3] is 79.45%; in experiment [6] it was 53.3%. Also, the IC50 in experiment [4] was 12.3 µM.
In the case of `CC1=C2C(=O)[C@H]3C(CC=C4C[C@@H](O)CC[C@@]43C)[C@@H]2CC[C@]12O[C@@H]1C[C@H](C)CN[C@H]1[C@H]2C` (stereo not given in full), the Activity in experiment [3] amounted to 79.45%; in experiment [6], 22.3%. Also, the IC50 in experiment [4] was 2.35 µM.
With `C[C@@H]1CCN=C([C@H](C)[C@H]2CC[C@H]3[C@@H]4CC=C5C[C@@H](O)CC[C@]5(C)[C@H]4CC[C@]23C)C1=O`, the Activity result in experiment [1] was “Dose-Dependent Effect”; in experiment [2], 54.5%; in experiment [3] it was 79.45%. This molecule displayed an IC50 in experiment [4] of 1.62 µM.
In the same order, the values of `C[C@H]1CCC([C@@H](C)[C@H]2CC[C@H]3[C@@H]4CC=C5C[C@@H](O)CC[C@]5(C)[C@H]4CC[C@]23C)=NC1` [VERAZINE] are “Dose-Dependent Effect”, 47.1%, 79.45% and 1.11 µM.
For the molecule `C[C@H]1CC[C@@H]2[C@@H](C)[C@H]3[C@H](C[C@H]4[C@@H]5CC=C6C[C@@H](O[C@@H]7O[C@H](CO)[C@@H](O)[C@H](O)[C@H]7O[C@@H]7O[C@@H](C)[C@H](O)[C@@H](O)[C@H]7O)CC[C@]6(C)[C@H]5CC[C@]34C)N2C1`, in experiment [7], the IC50 was 5.35 µM and the inhibition entry was “Dose-Dependent Effect”. Also, the Activity in experiment [2] worked out at 45.1%. In experiment [8], the viability at 30 µM stood at 13%. This molecule had an IC50 in experiment [4] of 0.72 µM.
As to `C[C@@H]1CCN=C([C@@H](C)[C@H]2CC[C@H]3[C@@H]4CC=C5C[C@@H](O)CC[C@]5(C)[C@H]4CC[C@]23C)C1=O`, the Activity result in experiment [1] was “Dose-Dependent Effect”; in experiment [2], 58.7%; in experiment [3], 79.45%. In experiment [4], this molecule had an IC50 of 5.81 µM.
For `CC[C@H](C)C(=O)O[C@H]1[C@H](O)[C@H]2[C@@H](CN3C[C@@H](C)CC[C@H]3[C@@]2(C)O)[C@@H]2C[C@@]34O[C@]5(O)[C@@H]([C@@H](O)[C@@H](O)[C@H]3[C@@]21O)[C@]4(C)CC[C@@H]5O`, the Activity worked out at 69.4% in experiment [2] and 79.45% in experiment [3]. For the same molecule, in experiment [4], half-maximal inhibition (IC50) was put at 14.3 µM.
Turning to `C[C@H]1CC[C@@H]2N(C1)C[C@H]1[C@@H]3C[C@H]4[C@@H](CC=C5C[C@@H](O)CC[C@@]54C)[C@@H]3C[C@H](O)[C@@H]1[C@]2(C)O`, the Activity amounted to 42.8% in experiment [2] and 79.45% in experiment [3]. The same molecule showed an IC50 in experiment [4] of 0.95 µM.
